Experimental data taken from ChEMBL document CHEMBL5126668, “The Invention of WM382, a Highly Potent PMIX/X Dual Inhibitor toward the Treatment of Malaria” (ACS Med Chem Lett, 2022).
Values after ≈ are worked out from the molar mass of the structure shown. Blank lines part the entries; values can stand above or below the molecule they belong to.

Experiments:
Plasmodium falciparum [1] = test: Antimalarial activity against asexual blood stage Plasmodium falciparum infected in RBC measured after 72 hrs by LDH release assay; format: functional, organism-based; conditions: Erythrocyte
Plasmepsin X = Plasmepsin X (Plasmodium falciparum (isolate 3D7), UniProt Q8IAS0); test: Inhibition of Plasmodium falciparum 3D7 HA-glms-tagged PMX using DABCYL-HSFIQEGKEE-EDANS as substrate measured after 2 hrs by FRET assay
Plasmepsin X, sequence (Q8IAS0 whole entry): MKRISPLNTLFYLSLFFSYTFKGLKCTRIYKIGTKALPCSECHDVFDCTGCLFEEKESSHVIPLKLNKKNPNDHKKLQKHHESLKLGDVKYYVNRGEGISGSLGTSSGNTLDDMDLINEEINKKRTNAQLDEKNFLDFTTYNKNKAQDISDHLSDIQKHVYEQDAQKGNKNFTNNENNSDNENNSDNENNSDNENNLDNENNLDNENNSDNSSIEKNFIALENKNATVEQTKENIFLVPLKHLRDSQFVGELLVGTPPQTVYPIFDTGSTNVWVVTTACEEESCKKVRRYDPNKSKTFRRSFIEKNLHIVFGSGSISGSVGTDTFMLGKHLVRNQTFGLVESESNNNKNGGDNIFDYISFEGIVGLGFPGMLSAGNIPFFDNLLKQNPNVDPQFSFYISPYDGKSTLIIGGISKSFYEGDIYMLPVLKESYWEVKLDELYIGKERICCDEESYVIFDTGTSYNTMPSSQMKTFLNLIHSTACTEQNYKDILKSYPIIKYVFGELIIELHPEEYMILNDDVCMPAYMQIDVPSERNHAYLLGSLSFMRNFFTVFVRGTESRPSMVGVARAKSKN

Plasmepsin IX = target: T1, Plasmepsin IX (Plasmodium falciparum, UniProt Q8ILG2); test: Inhibition of Plasmodium falciparum 3D7 HA-glms-tagged PMIX using DABCYL-HSFIQEGKEE-EDANS as substrate measured after 2 hrs by FRET assay
T1 sequence (Q8ILG2 whole entry): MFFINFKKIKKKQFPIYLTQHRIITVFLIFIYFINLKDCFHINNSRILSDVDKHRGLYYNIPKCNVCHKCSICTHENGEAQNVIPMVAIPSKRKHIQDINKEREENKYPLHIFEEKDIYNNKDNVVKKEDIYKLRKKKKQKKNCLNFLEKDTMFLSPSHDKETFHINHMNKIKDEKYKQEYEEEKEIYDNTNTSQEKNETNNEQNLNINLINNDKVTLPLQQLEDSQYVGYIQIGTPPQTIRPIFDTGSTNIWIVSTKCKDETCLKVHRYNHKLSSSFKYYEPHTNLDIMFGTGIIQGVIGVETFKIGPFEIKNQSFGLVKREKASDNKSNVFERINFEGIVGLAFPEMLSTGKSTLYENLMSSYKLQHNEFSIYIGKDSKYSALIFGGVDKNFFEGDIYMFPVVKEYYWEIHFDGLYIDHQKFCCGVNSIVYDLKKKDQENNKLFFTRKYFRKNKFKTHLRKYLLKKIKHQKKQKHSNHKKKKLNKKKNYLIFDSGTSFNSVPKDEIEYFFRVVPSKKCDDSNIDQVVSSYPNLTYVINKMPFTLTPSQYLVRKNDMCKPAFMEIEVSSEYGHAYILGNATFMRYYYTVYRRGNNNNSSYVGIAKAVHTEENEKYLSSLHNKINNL

[2] = Lipophilicity, log D of compound at pH 7.4; format: physicochemical; conditions: buffer
[3] = Kinetic solubility of the compound; format: physicochemical; conditions: read-out: Kinetic_solubility
[4] = Mean residence time in rat; format: ADME; conditions: in vivo
[5] = Plasma clearance in rat; format: ADME
[6] = Unbound clearance in rat; format: ADME; conditions: in vivo
[7] = Volume of distribution in rat; format: ADME; conditions: in vivo
[8] = Unbound volume of distribution in rat; format: ADME; conditions: in vivo
[9] = Oral bioavailability in rat; format: ADME, organism-based; conditions: in vivo
[10] = Mean residence time in mouse; format: ADME, organism-based; conditions: in vivo
[11] = Plasma clearance in mouse; format: ADME, organism-based
[12] = Unbound plasma clearance in mouse; format: ADME, organism-based; conditions: in vivo
[13] = Unbound volume of distribution in mouse; format: ADME, organism-based; conditions: in vivo
Plasmodium falciparum [14] = test: Antimalarial activity Plasmodium falciparum Dd2 assessed as EC90 fold pressure measured up to 62 days by microscopy; format: functional; conditions: Dd2, 1488 h, time <= 62 day
Plasmodium falciparum [15] = test: Antimalarial activity Plasmodium falciparum Dd2 assessed as minimum inoculum for resistance measured up to 62 days by microscopy; format: functional; conditions: time <= 62 day
[16] = Apparent permeability across apical to basolateral side in MDCK cells; format: ADME, cell-based, Canis lupus familiaris; conditions: dog
[17] = Protein binding in rat plasma; format: ADME, cell-free; conditions: read-out: PPB (converted)
[18] = Volume of distribution in mouse; format: ADME, organism-based; conditions: in vivo
[19] = Oral bioavailability in mouse; format: ADME, organism-based; conditions: in vivo
[20] = Protein binding in mouse plasma; format: ADME, cell-free; conditions: read-out: PPB (converted)

EC50 (Plasmodium falciparum [1]): 4.6 nM
IC50 (Plasmepsin X): 1.9 nM
SMILES: CC(C)[C@]1(C)CC(=O)N([C@H](c2ccccc2)c2cccc(C(=O)N[C@@H](C)c3ccccc3)c2)C(=N)N1

EC50 (Plasmodium falciparum [1]): 10 nM
SMILES: CCC1(CC)CC(=O)N(Cc2cncc(C(=O)N[C@H]3CCOc4ccccc43)c2)C(=N)N1

EC50 (Plasmodium falciparum [1]): 17 nM
SMILES: CC(C)CC(c1ccc(C(F)(F)F)c(C(=O)N2Cc3nccnc3C2)c1)N1C(=N)N[C@](CC2CC2)(c2ccccc2)CC1=O (some centres undefined)

EC50 (Plasmodium falciparum [1]): > 1000 nM
SMILES: CCNC(=O)c1cccc(CN2C(=N)N[C@](C)(C(C)C)CC2=O)c1

EC50 (Plasmodium falciparum [1]): 690 nM
SMILES: CC(C)C[C@@H](c1ccc(C(F)(F)F)c(C(=O)N2Cc3nccnc3C2)c1)N1C(=N)N[C@](CC2CC2)(c2ccccc2)CC1=O

EC50 (Plasmodium falciparum [1]): 0.8 nM
SMILES: CCC[C@H](c1cccc(C(=O)N[C@@H](C)c2ccccc2)c1)N1C(=N)NC(CC)(CC)CC1=O

SMILES: CCC1(CC)CC(=O)N([C@@H]2CCOc3ccc(C(=O)N[C@H]4CC(C)(C)Oc5ccccc54)cc32)C(=N)N1
EC50 (Plasmodium falciparum [1]): 0.4 nM
IC50 (Plasmepsin X): 0.03 nM
IC50 (Plasmepsin IX): 1.4 nM
logD [2]: 2.5
solubility kinetic [3]: 0.1 µM (≈ 0.0505 µg/mL)
MRT [4]: 3.7 h
clearance [5]: 42 mL/min/kg
CL free [6]: 1022 mL/min/kg
Vd [7]: 9.4 L/kg
Vdu [8]: 222 L/kg
bioavailability [9]: 8%
MRT [10]: 2.5 h
clearance [11]: 42 mL/min/kg
CL free [12]: 774 mL/min/kg
Vdu [13]: 120 L/kg
EC90 (Plasmodium falciparum [14]): 1.5 nM
Activity (Plasmodium falciparum [15]): >9

EC50 (Plasmodium falciparum [1]): 8.7 nM
SMILES: CCC1(CC)CC(=O)N([C@H](CCN2CCCC2)c2cccc(C(=O)N[C@@H](C)c3ccccc3)c2)C(=N)N1

EC50 (Plasmodium falciparum [1]): > 1000 nM
SMILES: CC(C)[C@]1(C)CC(=O)N(Cc2cccc(C(=O)N3Cc4ccccc4C3)c2)C(=N)N1

EC50 (Plasmodium falciparum [1]): 440 nM
SMILES: CC(C)[C@]1(C)CC(=O)N([C@@H](c2ccccc2)c2cccc(C(=O)N[C@@H](C)c3ccccc3)c2)C(=N)N1

EC50 (Plasmodium falciparum [1]): 169 nM
SMILES: CCC1(CC)CC(=O)N(Cc2cc(C(=O)N[C@H]3CCOc4ccccc43)cnn2)C(=N)N1

EC50 (Plasmodium falciparum [1]): 2.5 nM
IC50 (Plasmepsin X): 0.07 nM
IC50 (Plasmepsin IX): 2.2 nM
logD [2]: 2.1
solubility kinetic [3]: 0.2 µM (≈ 0.0953 µg/mL)
Papp A→B [16]: 8.8 ×10⁻⁶ cm/s
MRT [4]: 2.7 h
clearance [5]: 79 mL/min/kg
CL free [6]: 518 mL/min/kg
Vd [7]: 12 L/kg
Vdu [8]: 80 L/kg
bioavailability [9]: 27%
fraction unbound [17]: 0.152
MRT [10]: 1.3 h
clearance [11]: 68 mL/min/kg
CL free [12]: 1278 mL/min/kg
Vd [18]: 5.4 L/kg
Vdu [13]: 102 L/kg
bioavailability [19]: 4%
fraction unbound [20]: 0.053
SMILES: CCC1(CC)CC(=O)N([C@@H]2CCOc3ccc(C(=O)NC4CCOc5ccccc54)cc32)C(=N)N1 (single isomer, unassigned)

EC50 (Plasmodium falciparum [1]): > 1000 nM
SMILES: CC(C)[C@]1(C)CC(=O)N(Cc2cccc(C(=O)NCCc3ccccc3)c2)C(=N)N1

EC50 (Plasmodium falciparum [1]): 53 nM
SMILES: CC(C)[C@]1(C)CC(=O)N(Cc2cccc(C(=O)NC3COCc4ccccc43)c2)C(=N)N1 (mixture of isomers)

EC50 (Plasmodium falciparum [1]): 160 nM
SMILES: CCC1(CC)CC(=O)N(C(c2cccc(C(=O)N[C@@H](C)c3ccccc3)c2)C2CC2)C(=N)N1 (mixture of isomers)

EC50 (Plasmodium falciparum [1]): 40 nM
SMILES: CCC1(CC)CC(=O)N([C@H](CCOC)c2cccc(C(=O)N[C@@H](C)c3ccccc3)c2)C(=N)N1

EC50 (Plasmodium falciparum [1]): 308 nM
SMILES: CC(C)[C@]1(C)CC(=O)N(Cc2cccc(C(=O)N[C@@H](C)c3ccccc3)c2)C(=N)N1

EC50 (Plasmodium falciparum [1]): 0.4 nM
SMILES: CCC1(CC)CC(=O)N(Cc2cccc(C(=O)N[C@H]3CCOc4ccccc43)c2)C(=N)N1

EC50 (Plasmodium falciparum [1]): 68 nM
SMILES: CC(C)[C@]1(C)CC(=O)N(Cc2cccc(C(=O)NC3CCCc4ccccc43)c2)C(=N)N1 (mixture of isomers)

EC50 (Plasmodium falciparum [1]): 65 nM
SMILES: CCC1(CC)CC(=O)N(Cc2ccnc(C(=O)N[C@H]3CCOc4ccccc43)n2)C(=N)N1

EC50 (Plasmodium falciparum [1]): 93 nM
SMILES: CCC1(CC)CC(=O)N(Cc2cc(F)cc(C(=O)N[C@@H](C)c3ccccc3)c2)C(=N)N1

EC50 (Plasmodium falciparum [1]): 830 nM
SMILES: CCC1(CC)CC(=O)N([C@@H](c2ccccc2)c2cccc(C(=O)N[C@@H](C)c3ccccc3)c2)C(=N)N1

EC50 (Plasmodium falciparum [1]): 0.4 nM
IC50 (Plasmepsin X): 0.06 nM
IC50 (Plasmepsin IX): 4.5 nM
logD [2]: 2.9
solubility kinetic [3]: 0.2 µM (≈ 0.0953 µg/mL)
Papp A→B [16]: 16.3 ×10⁻⁶ cm/s
MRT [4]: 1.1 h
clearance [5]: 103 mL/min/kg
CL free [6]: 5648 mL/min/kg
Vd [7]: 6.7 L/kg
Vdu [8]: 340 L/kg
bioavailability [9]: 6%
fraction unbound [17]: 0.02
MRT [10]: 1.1 h
clearance [11]: 36 mL/min/kg
CL free [12]: 3148 mL/min/kg
Vd [18]: 2.3 L/kg
Vdu [13]: 204 L/kg
bioavailability [19]: 14%
fraction unbound [20]: 0.011
SMILES: CCC[C@H](c1cccc(C(=O)N[C@H]2CCOc3ccccc32)c1)N1C(=N)NC(CC)(CC)CC1=O

EC50 (Plasmodium falciparum [1]): 110 nM
SMILES: CCC1(CC)CC(=O)N(Cc2cccc(C(=O)N[C@H]3CCOc4ccccc43)n2)C(=N)N1
